Data from the NIST ThermoML archive (doi:10.1021/je0342668).

Experiment: molar heat capacity at constant pressure; xn = mol fraction of the nth substance listed
Details: Liquid, x2 = 0.568

CCCO [propan-1-ol] + O
Details | molar heat capacity at constant pressure [J/K/mol]
262.42 K | 106.61
264.63 K | 107.35
266.82 K | 108.31
269.02 K | 109.17
271.19 K | 109.88
273.35 K | 110.58
275.5 K | 111.1
277.64 K | 111.89
279.76 K | 112.63
281.87 K | 113.37
283.94 K | 114.17
286 K | 114.78
288.06 K | 115.38
290.08 K | 116.09
292.07 K | 116.6
294.06 K | 117.18
296.02 K | 117.95
298.02 K | 118.53
300.05 K | 119.17
302.07 K | 119.94
304.12 K | 120.61
306.15 K | 121.22
308.18 K | 121.92
310.21 K | 122.56
312.24 K | 123
314.26 K | 123.59
316.27 K | 124.29
318.28 K | 124.81
